In patent US12376594B2, “Pest control kit and method” (priority 2019, dated 2025):

Tests used:
sciarid fly larvae = experiment: Field trial, control of sciarid fly larvae in mushroom production; format: in vivo, Lycoriella spp.; conditions: first week of application
Protocol: Treatments consisted of: Carbofuran, Teflubenzuron, Steinernema feltiae alone or with Wetting agent composition (as Pest control kit-S). Trial was conducted in mushroom production farm in UK in 2016-17. Mushrooms were naturally infected with sciarid larvae and numbers counted week 1 and 3 post treatments. Each treatment was replicated 4 times with 15 plants/treatment.
Fungus gnats, also known as sciarid flies, found on and around growing media, are a major pest for greenhouse and polytunnel ornamental crops. The sciarid fly larvae are responsible for causing damage to an extensive variety of economically important potted plants directly through feeding on roots and stalk tissue of seedlings, cuttings and younger plants. They also cause damage indirectly through the transmission of fungal disease through the wounds caused by sciarid larvae. Pot plants known to be susceptible to sciarid attack include Poinsettia, Azalea, Cyclamen, Kalanchoe, Exacum, Gerbera, Begonia and others. All kinds of young plants and young rooted cuttings (vegetables, ornamentals and young nursery plants) are highly susceptible to sciarid larvae. […] Mushrooms were harvested for up to 4 weeks and number of dead and live larvae were counted. […]
The number of surviving larvae was transformed into percentage efficacy using the equation below and analysed using analysis of variance (ANOVA). […]

[1] = test system: Welsh chafer, Hoplia philanthus grubs; experiment: Field trial, control of chafer grubs in golf course; format: in vivo; conditions: The Grove Golf Club, nematodes 2.5 billion per hectare twice weekly, Chlorpyrifos 2 litres a.i. per hectare once
Protocol: Trial was conducted at The Grove Golf Club, Watford, London, UK between May 2017 and October 2018. Treatments consisted of: Heterorhabditis bacteriophora 2.5 billion/ha applied alone, Pest control kit-C 2.5 billion/ha applied with Wetting agent composition (10 L/ha) and Chlorpyrifos (Equity) 2 L a.i./ha. All treatments were applied using soil injector followed conventional boom sprayer. Soil samples were taken at 2, 4, 6, and 8 weeks post application to assess grub population.
Field trials were conducted on a naturally infested tees, green and fairways containing a mixture of Welsh chafer, Hoplia philanthus (90%), Garden chafer, Phyllopertha horticola (3%), Summer chafer, Amphimallon solstitialis (1%), May beetle, Melolontha (4%) and wireworms Agriotes species (3%) at The Grove Golf Club, Watford, and Ashridge Golf Club, Berkhamsted, UK. […] No natural nematodes were detected by baiting soil samples with Galleria mellonella larvae.
One week before treatment, the pre-treatment larval density was determined in tees, greens and fairways (see FIG. 4) by taking three 16×16×10 to 15 cm soil plugs with a shovel or golf Hole Cutter (10 cm diameter). The living larvae were counted and expressed as number of larvae per square meter. […]
The treatments included: • 1. […] The larval density after treatment was determined 2, 4, 6, or 8 weeks after nematode or chlorpyrifos application. […]

SMILES | Sciarid fly larvae control (sciarid fly larvae) | Control of chafer grubs [1]
O=C(NC(=O)c1c(F)cccc1F)Nc1cc(Cl)c(F)c(Cl)c1F [Teflubenzuron] | 71% | 
CCOP(=S)(OCC)Oc1nc(Cl)c(Cl)cc1Cl [Chlorpyrifos] |  | 62%
